These results are taken from US4233224A, “Coriolin derivatives” (priority 1978, dated 1980).

≈ marks a conversion by molar mass, not a printed value. Read-outs that look alike come from different tables or passages of the source.

By inhibition is commonly meant the percentage by which the read-out fell short of the control.

The conditions of data set [1]: known coriolin type compounds; J. Antibiotics, Tetrahedron Letters; cited from earlier work.
Data set [2] deals with HeLa S3 cells. Put plainly: cells. The class given is cell-based. The conditions noted are these: for inhibition at 1 µg/mL: 1 μg/ml; for inhibition at 2 µg/mL: 2 μg/ml. The procedure:
The HeLa S3 cells were scattered in a plastic laboratory dish, 6 cm in diameter, at the rate of 0.7×10^5 cells/plate by using as a medium an Eagle's MEM (Minimum Essential Medium) [Science, 30, 432-437 (1959)] containing 60 μg/ml of kanamycin and 10% calf serum. On the 2nd day, the medium was removed and a measured quantity of the compound of this invention was added together with a fresh serum-impregnated Eagle's MEM. The cell population at this time was 1.58×10^5 cells/plate. After adding the compound (I) of this invention thereto, cultures were grown for 3 days and then the medium was removed, followed by washing with physiological saline, treatment with 0.05% trypsin at room temperature for about 15 minutes and pipetting to disperse the cells. The cell number was counted by a counter and percent inhibition (%) was calculated from the number of the control cells (to which no compound was added) to determine […]. [formula]

Data set [3] concerns HeLa S3 cells. Put plainly: cells. The class given is cell-based. The settings on record: Homo sapiens, 72 h, 3 days, read-out: ID50 (the source's name).
In data set [4] the test system is L-1210 (lymphatic leukemia strain). Put plainly: Life-prolonging effect in cancer (L-1210) affected mice. The data set is classed as in vivo, mouse (BDF1). The conditions noted are these: once a day for 10 days, from 24 hours after intraperitoneal inoculation of 1×10^5 L-1210 cells, BDF1 mice, compared with control group. Here is the method:
The L-1210 cells (1×10^5, 0.05 ml) were inoculated into the BDF1 mouse abdorminal cavities (BDF1 means a strain name of mouse), and after lapse of 24 hours, a measured amount of preparation (suspended in 0.5% CMC aqueous solution) was administered once a day for a period of 10 days.
The mice were observed till death, and by comparing the average number of surviving days of the tested mice with that of the control group (to which a 0.5% CMC aqueous solution alone was given), the life prolongation rate was calculated from the following formula: [drawing 17]

Where [5] appears, read: Homo sapiens, 72 h, 0.5 μg/ml, HeLa S3 cells, 3 days, read-out: Percent inhibition.
[6] abbreviates: Homo sapiens, 72 h, HeLa S3 cells, 3 days, read-out: Percent inhibition.
Where [7] appears, read: Homo sapiens, HeLa S3, 72 h, read-out: Percent inhibition.

`CCCCCCCC(=O)O[C@@H]1[C@@H]2[C@H](CC1(C)C)C(=O)[C@@]13O[C@@H]1C(=O)[C@@]1(CO1)[C@@]23C` [5,8-dehydrocoriolin B]: the “anti-tumor activity (in words)” value in data set [1] is recorded as “having an anti-tumor activity”.
As to `CCCCCCCC(=O)O[C@@H]1[C@@H]2[C@H](CC1(C)C)[C@H](O)[C@@]13O[C@@H]1C(=O)[C@@]1(CO1)[C@@]23C` [5-dehydrocoriolin B VI, 5-dehydrocoriolin B, reference compound], the “anti-tumor activity (in words)” value in data set [1] is “having an anti-tumor activity”. Further, the inhibition at 0.5 µg/mL in data set [2] (setting [5]) came out at 20%. For the same compound, in data set [2] (setting [6]), the inhibition at 1 µg/mL was determined as 77.6%. Further, in data set [3], the IC50 came out at 0.76 µg/mL (≈ 1.87 µM). The Life-prolonging effect (life prolongation rate) was 106% in data set [4] (dose 6 μg/mouse × 10), 138% in data set [4] (dose 12.5 μg/mouse × 10), 137% in data set [4] (dose 25 μg/mouse × 10) and 144% in data set [4] (dose 50 μg/mouse × 10).
For `C=C1CC2(OC1=O)[C@H]1CC(C)(C)[C@H](OC(=O)CCCCCCC)[C@H]1[C@]1(C)[C@]3(CO3)[C@@H](O)[C@H]3O[C@@]321` (stereo partly drawn) [I, 1α-octanoyl-4β, 15:6β,7β-dioxide-5β-hydroxy-8(22-methylene-21-butanolide)hirsutane], in data set [2] (setting [6]), the inhibition at 2 µg/mL amounted to 48%. Further, the inhibition at 4 µg/mL in data set [2] (Homo sapiens, 72 h, 4 μg/ml, HeLa S3 cells, 3 days, read-out: Percent inhibition) is 76.2%. Also, the IC50 in data set [3] was 2.1 µg/mL (≈ 4.42 µM). The results for the Life-prolonging effect (life prolongation rate) in data set [4] (dose 50 μg/mouse × 10), in data set [4] (dose 100 μg/mouse × 10) and in data set [4] (dose 200 μg/mouse × 10) were 96%, 111% and 130%, respectively.
On to `C=C1CC2(OC1=O)[C@H]1CC(C)(C)[C@H](OC(=O)CCCCCCC)[C@H]1[C@]1(C)[C@]3(CO3)C(=O)[C@H]3O[C@@]321` (stereo partly drawn) [II, 1α-octanoyl-4β,15:6β,7β-dioxide-5-oxo-8(22-methylene-21-butanolide)hirsutane], for which, in data set [2] (HeLa S3 cells), the “inhibiting growth of the HeLa S3 cells (in words)” value is recorded as “works marvelously in preventing growth of the cancerous cells”. In data set [2] (Homo sapiens, 72 h, 0.1 μg/ml, HeLa S3 cells, 3 days, read-out: Percent inhibition), the inhibition at 0.1 µg/mL is 40.2%. Also, the inhibition at 0.2 µg/mL in data set [2] (Homo sapiens, 72 h, 0.2 μg/ml, HeLa S3 cells, 3 days, read-out: Percent inhibition) turned out to be 83.2%. For the same compound, in data set [2] (stated with ID50, HeLa S3 cells), the “toxicity (in words)” value is reported as “extremely low in toxicity”. In addition, the IC50 in data set [3] is 0.12 µg/mL (≈ 0.254 µM).
As for `C=C1CC2(OC1=O)[C@H]1O[C@]13[C@@H](O)[C@H]1CC(C)(C)[C@H](OC(=O)CCCCCCC)[C@H]1[C@]3(C)[C@]21CO1` (stereo partly drawn) [III, 1α-octanoyl-4β,15:6β,7β-dioxide-5(19-methylene-18-butanolide)-8β-hydroxy-hirsutane], the inhibition at 1 µg/mL in data set [2] (setting [6]) stood at 42.9%. Moreover, the inhibition at 2 µg/mL in data set [2] (setting [6]) was 96.6%. For the same compound, in data set [3], the IC50 was 1.1 µg/mL (≈ 2.32 µM). Besides, the Life-prolonging effect (life prolongation rate) in data set [4] (dose 6 μg/mouse × 10) was 99%; in data set [4] (dose 12.5 μg/mouse × 10), 106%; in data set [4] (dose 25 μg/mouse × 10) it was 127%; in data set [4] (dose 50 μg/mouse × 10), 141%; in data set [4] (dose 100 μg/mouse × 10) it was 148%; in data set [4] (dose 200 μg/mouse × 10), 148%.
Regarding `C=C1CC2(OC1=O)[C@H]1O[C@]13C(=O)[C@H]1CC(C)(C)[C@H](OC(=O)CCCCCCC)[C@H]1[C@]3(C)[C@]21CO1` (stereo partly drawn) [IV, 1α-octanoyl-4β,15:6β,7β-dioxide-5(19-methylene-18-butanolide)-8-oxo-hirsutane], the inhibition at 0.5 µg/mL in data set [2] (setting [5]) is 43.3%. In data set [2] (setting [6]), the inhibition at 1 µg/mL is 71.6%. Besides, in data set [3], the IC50 worked out at 0.6 µg/mL (≈ 1.27 µM). In addition, the Life-prolonging effect (life prolongation rate) in data set [4] (dose 12.5 μg/mouse × 10) came to 99%; in data set [4] (dose 25 μg/mouse × 10), 113%; in data set [4] (dose 50 μg/mouse × 10) it was 106%; in data set [4] (dose 100 μg/mouse × 10), 127%; in data set [4] (dose 200 μg/mouse × 10) it was 127%.
For the compound `C=C1CC2(OC1=O)[C@H]1O[C@]13C1(CC(=C)C(=O)O1)[C@H]1CC(C)(C)[C@H](OC(=O)CCCCCCC)[C@H]1[C@]3(C)[C@]21CO1` (stereo partly drawn) [V, 1α-octanoyl-4β,15:6β,7β-dioxide-5(19-methylene-18-butanolide)-8(22-methylene-21-butanolide)hirsutane], in data set [2] (Homo sapiens, HeLa S3, 72 h, read-out: ID50), the IC50 is 0.47 µg/mL (≈ 0.869 µM). Further, in data set [2] (setting [7]), the inhibition at 0.25 µg/mL turned out to be 22.4%. Also, the inhibition at 0.5 µg/mL in data set [2] (setting [7]) was determined as 56.9%. For the same compound, the Life-prolonging effect (life prolongation rate) in data set [4] (dose 100 μg/mouse × 10) turned out to be 99%; in data set [4] (dose 200 μg/mouse × 10), 120%.
As to coriolin, the “anti-tumor activity (in words)” value in data set [1] is “having an anti-tumor activity”.
Turning to coriolin C, the “anti-tumor activity (in words)” value in data set [1] is on record as “having an anti-tumor activity”.
